The text below walks through data of patent US6086915A, “Compositions and methods of adjusting steroid hormone metabolism through phytochemicals” (priority 1998, dated 2000).

For series [1] the following is noted: an hour after oral dose of I3C; cited from earlier work.
The test system of a further series is hepatic enzyme. The following applies: one mg/kg of DIM in corn oil, fed; cited from earlier work.
For another series, the system named is cultured liver cells. The following applies: added directly to cultured liver cells; cited from earlier work.
The test system of series [2] is total cytochrome (CYP) enzymes. The experiment in a line: Example 9: total CYP in liver microsomes of rats fed crystalline or processed DIM (Western Blots). In kind it is in vivo, Sprague Dawley rats. Conditions: males; 100 mg per kg gavage, 3 consecutive days. Background: Microsomes from liver hold many membrane-bound enzymes, among them those of drug oxidation.
Series [3] can be described thus: DIM stability in simulated gastric environment and shelf-life conditions. In kind it is physicochemical. The source says:
Therefore the need exists for a bioavailable formulation of DIM as well as related dimers and trimers, since hydrophobic substances like DIM are poorly absorbed.

For a further series, the system named is CYP 1A1/1A2 and 1B1. The experiment in a line: Example 10: immunoblot of CYP enzyme induction in uterine and hepatic microsomes after feeding. In kind it is in vivo, Sprague-Dawley female rats. As to the method:
CYP enzyme induction was again used as a bio-marker of bioavailability.
The study compared the enzyme induction resulting from exposure of female rats to crystalline DIM, I3C and processed DIM at relevant doses in the feed. Levels of CYP 1A1/1A2 and 1B1 were measured in uterine and hepatic microsomes as a surrogate end point of uptake and bioavailability.
A total of 30 Sprague-Dawley female rats weighing approximately 200 gms were treated as follows:
1. 5-7 day acclimatization in group cages, feeding on AIN76A minimally inducing diet.
2. 3 days feeding on same feed mixed with 7 different combinations of dietary indoles.
3. Sacrifice of animals on about day 10. Harvesting of livers and uteri following perfusion of abdominal organs to remove blood.
4. Processing of organs to obtain CYP enzyme rich microsomal fraction.
5. Immunoblot determination of levels of specific CYP enzymes by standard means using existing CYP antibodies.
Microsomes from the following groups were assayed:
Organ weight was obtained at necropsy. Specific CYP enzyme levels were compared based on standardized densitometry units. […] Results expressed as densitometry units indicating uptake of indole and degree of enzyme induction are listed according to the above groups: […]
On the technique in general: Immunoblotting shows a protein as a band on a membrane.

Series [4] has as its system hepatic microsomal metabolism of estrogen. Conditions: cited from earlier work.
Series [5] can be described thus: solubility in water and in oil. The series is classed as physicochemical.
For the next series, the system named is Human Cancer Cells. Conditions: cell culture; cited from earlier work.
In series [6] the test system is CYP enzymes in colonic epithelium. The following applies: in diet, mixed with feed; cited from earlier work.
A further series concerns p-glycoprotein. The following applies: cited from earlier work.
The test system of series [7] is CYP 1A1/1A2. The following applies: rats fed I3C; cited from earlier work.
The test system of series [8] is 2-hydroxylation of estradiol. Conditions: cited from earlier work; for shift of estrogen metabolism: I3C, oral.
For series [9] the following is noted: cited from earlier work.
Series [10] has as its system 2-hydroxylation of estradiol. The following applies: animals; cited from earlier work.
The subject of series [11] is CYP 1A1/1A2. The following applies: mice fed I3C; cited from earlier work.
The next series has as its system CYP. Conditions: cited from earlier work.
Where [12] appears, read: oil, organic solvent or mixture, read-out: solubility in oil.
The mark [13] stands for this setting: water, read-out: solubility in water.

Molecules are shown by their SMILES. Converted amounts (≈) assume the structure as drawn. “Also recorded” adds a separate entry of the source. Read-outs that look alike come from different tables or passages of the source.

In the case of `c1ccc2c(Cc3[nH]c4ccccc4c3Cc3c[nH]c4ccccc34)c[nH]c2c1` [2,3-bis[3-indolylmethyl]indole], in series [1], the “detection in gastric contents and stomach tissue” value was “detected in gastric contents and stomach tissue”.

As a reminder, the solubility is how much of the substance goes into solution per volume. Turning to `c1ccc2c(Cc3c[nH]c4ccccc34)c[nH]c2c1` [DIM, 3,3'-diindolylmethane], in the series with hepatic enzyme, the hepatic enzyme induction entry was “no hepatic enzyme induction”. Further, the CYP enzyme induction entry in the series on cultured liver cells is listed as “powerful CYP enzyme-inducer”. In addition, the “Total CYP (nmol/mg protein), Percent of Control” value in series [2] was found to be 140%. In series [3] (accelerated shelf-life conditions), the shelf stability result is “shelf stable”. Besides, the indolocarbazole generation entry in series [3] (digestion, gastric acid, or accelerated shelf-life conditions) is “No indolocarbazole is generated”. The “stability during passage through a simulated gastric environment” value in series [3] (simulated gastric environment) is given as “entirely stable”. Further, the “detection in gastric contents and stomach tissue” value in [1] was “detected in gastric contents and stomach tissue”. The “CYP enzyme induction, Densitometry Units” value came to 0 Densitometry Units in the series with CYP 1A1/1A2 and 1B1 (DIM high 10 mg/kg/day, crystalline, in feed 3 days); 0 Densitometry Units with CYP 1A1/1A2 and 1B1 (DIM low 2 mg/kg/day, crystalline, in feed 3 days). In addition, the “dose below which activity is lost” value in series [4] (DIM in the diet / in sesame oil) was “below 5 mg per kg”. Further, in series [4] (fed to rats), the “potency in influencing estrogen metabolism, DIM over I3C” value was “increased potency of DIM over I3C”. The “lowest dose with enzyme inductive effects” value in series [4] (injected intraperitoneally) is recorded as 0.3 mg per kg. In addition, the solubility came to 100 µg/mL (≈ 406 µM) in series [5] (setting [12]) and 2.5 µg/mL (≈ 10.1 µM) in series [5] (setting [13]). For the same compound, the apoptosis result in the series on Human Cancer Cells is “able to support the cancer preventive behavior of apoptosis”. Further, the “CYP enzyme induction in colonic epithelium” value in series [6] is “failed to induce CYP enzymes in colonic epithelium”. Also, the p-glycoprotein function entry in the series on p-glycoprotein (cell culture and in vivo) is “Inhibition of the function of the p-glycoprotein”. Besides, the “effectiveness of chemotherapy drugs in multiply resistant cancer cells” value in the series with p-glycoprotein is “increase the effectiveness of chemotherapy drugs in multiply resistant cancer cells; also recorded: increased effectiveness of chemotherapeutic compounds in multiply resistant cancer cells”. For the same compound, in the series on p-glycoprotein (molecular probe), the “interaction with p-glycoprotein membrane structure” value is recorded as “direct interaction of DIM with the p-glycoprotein membrane structure”.

`OCc1c[nH]c2ccccc12` [I3C, indole-3-carbinol]: the “hepatic and intestinal levels of CYP 1A1/1A2 enzyme” value in the series with CYP 1A1/1A2 [7] and in the series with CYP 1A1/1A2 [11] was “increased” in each case. The minimum dose in series [8] (I3C dietary supplement) is recorded as 300 mg per person per day. The “shift of estrogen metabolism” value in series [8] is listed as “beneficially shift estrogen metabolism to favor 20 H estrone”; in series [8] (listed as indole-3-carbinol), “successful in shifting estrogen metabolism to favor 20 H estrone”. The 2-hydroxylation of estradiol entry in series [8] (humans) and in series [10] was “increase the 2-hydroxylation of estradiol” throughout. For the same compound, the “CYP enzyme induction, Densitometry Units” value in the series on CYP 1A1/1A2 and 1B1 (I3C high 25 mg/kg/day, in feed 3 days) is reported as 5.1 Densitometry Units; in the series with CYP 1A1/1A2 and 1B1 (I3C low 5 mg/kg/day, in feed 3 days), 0 Densitometry Units. In addition, the “loss of the original I3C” value in series [9] (aging conditions simulating a one month period, 43800 min) is given as “approximately 50%”. Moreover, in [9] (heat, light, moisture, or acidic environments), the stability result is “unstable and subject to spontaneous breakdown”. In addition, in [6], the “CYP enzyme induction in colonic epithelium” value is on record as “powerful inductive activity”.

On to `Clc1cc2c(cc1Cl)Oc1cc(Cl)c(Cl)cc1O2` [TCDD, 2,3,7,8-Tetrachlorodibenzo-P-Dioxin], for which, in the series on CYP 1A1/1A2 and 1B1 (positive control, by gavage), the “CYP enzyme induction, Densitometry Units” value was 251.7 Densitometry Units.

For `COc1ccc(-c2cc(=O)c3c(OC)c(OC)c(OC)c(OC)c3o2)cc1` [Tangeretin, 5,6,7,8,4'-pentamethoxyflavone], the CYP induction result in the series with CYP (dietary intake) is on record as “associated with CYP induction”.

Turning to `O=c1cc(-c2ccccc2)oc2cc(O)cc(O)c12` [chrysin, 5,7-Dihydroxyflavone, reference compound], the figures for the solubility in [5] (setting [12]) and in [5] (setting [13]) were 50 µg/mL (≈ 197 µM) and 0.7 µg/mL (≈ 2.75 µM), respectively. In the series on CYP (two weeks oral intake at 300 mg/kg of body weight), the “CYP-related effects in rat livers” value is “no CYP-related effects were noted in rat livers”.
